Source: publication PMC8151276, “An Integrated Approach toward NanoBRET Tracers for Analysis of GPCR Ligand Engagement” (Molecules, 2021)
Values belong to the molecule of their own block, whether it stands above or below them.

Legend:
Type in all cases: binding
NPBWR2 = biological target: T1, NPBWR2 (Homo sapiens, UniProt P48146); experiment: NanoBRET screen HiBiT-NPBWR2 in HEK293
T1 construct: purchased Promega (in-house HiBiT-GPCR construct library, NanoBRET)
Procedure: (§1) Each tracer candidate was screened across the entire library of HiBiT-GPCR constructs using NanoBRET as the detection modality. As depicted in Figure 4A, the specificity of interactions was evaluated through decrease in BRET due to competitive displacement of a bound tracer by excess parental compound. Each tracer was analyzed for binding to each HiBiT-GPCR fusion in the absence and in the presence of competing parental compound. Briefly, HEK293 cells were transfected with HiBiT-GPCR constructs diluted into promoterless DNA to reduce expression and maximize translocation to the cell surface. Each tracer candidate was then screened at concentrations of 1 μM and 0.1 μM across cells expressing these fusions. Cells were treated for 1.5 h with tracer either alone or in the presence of 20 μM competing parental compound (i.e., control). BRET was measured upon addition of purified LgBiT and subsequent complementation with HiBiT genetically fused to a GPCR. The specificity of interactions was assessed through a decrease in BRET signal due to competitive displacement of the bound tracer. To further gauge the robustness of these interactions, the fold response over the control (i.e., BRETtracer/BRETcontrol) was calculated. We chose a 1.5-fold response, which translates to ≥7-fold signal over noise as the minimal threshold required to score an interaction as positive. […]. Below we highlight the screening results obtained for our exemplary fluorescent tracers based on Clozapine, Amitriptyline and AZD1283.
(§2) HiBiT-GPCR DNA constructs were diluted in 10 mM Tris pH 8 to a final concentration of 0.01 μg/μL, arrayed in 96-well plates and stored at −20 °C. For transfection, HEK293 cells were suspended in Opti-MEM (without phenol red) supplemented with 2% fetal bovine serum (Seradigm) and 100 units/mL penicillin–streptomycin (Gibco) at a final concentration of 220,000 cells/mL and dispensed into white 96-well plates at 90 μL/well. Subsequent transfections and screens were carried using an Agilent Bravo Automated Liquid Handling Platform. First, the 96-well HiBiT DNA arrays were diluted 25-fold in Opti-MEM (without serum or phenol red) to a final concentration of 0.0004 μg/μL and 20 μL of the diluted DNAs were transferred into new 96-well plates. Next, promoterless carrier DNA (1 μg/μL) was diluted 25-fold (0.04 μg/μL) and then dispensed into the diluted arrays at 20 μL/well. Following brief mixing, Viafect transfection reagent (Promega) diluted 16-fold into Opti-MEM was dispensed into the plates at 40 μL/well. After mixing by pipetting, plates were incubated for 10 min on the pipetting station deck. The DNA-transfection reagent complexes were then added to plates containing cells. To facilitate the screen, 10 μL of DNA-transfection reagent complexes were added in duplicates to the top 4 and bottom 4 rows, resulting in two identical 48-well arrays per plate. Plates with transfected cells were incubated for 18–20 h at 37 °C/5% CO2. A screen of each tracer across the entire library using two different concentrations requires duplicate plates of transfected cells. Depending on the number of tracers being screened, transfections can be scaled up using the same ratios. The next day, for each tracer, four 20× screening solutions in tracer dilution buffer (Promega) were prepared: two duplicates at final concentration of 20 μM and two duplicates at a final concentration of 2 μM. A competing unmodified compound was added to one of each duplicate at a final concentration of 400 μM. The four resulting solutions were diluted 4-fold in Opti-MEM without serum or phenol red to generate 5× solutions (5 µM and 0.5 µM tracer +/− 100 μM competing compound). To screen the library, a BioTek MultiFlo FX liquid dispenser was used to dispense 22.5 µL of tracer solution to the top 4 rows and 22.5 µL tracer + competing compound solution to the 4 bottom rows. Plates were briefly mixed on an orbital shaker and incubated for 1.5 h at room temperature. […]

F2RL3 = biological target: T2, F2RL3 (Homo sapiens, UniProt Q96RI0); experiment: NanoBRET screen HiBiT-F2RL3 in HEK293
T2 construct: purchased Promega (in-house HiBiT-GPCR construct library, NanoBRET)
T2 sequence (Q96RI0 18-385): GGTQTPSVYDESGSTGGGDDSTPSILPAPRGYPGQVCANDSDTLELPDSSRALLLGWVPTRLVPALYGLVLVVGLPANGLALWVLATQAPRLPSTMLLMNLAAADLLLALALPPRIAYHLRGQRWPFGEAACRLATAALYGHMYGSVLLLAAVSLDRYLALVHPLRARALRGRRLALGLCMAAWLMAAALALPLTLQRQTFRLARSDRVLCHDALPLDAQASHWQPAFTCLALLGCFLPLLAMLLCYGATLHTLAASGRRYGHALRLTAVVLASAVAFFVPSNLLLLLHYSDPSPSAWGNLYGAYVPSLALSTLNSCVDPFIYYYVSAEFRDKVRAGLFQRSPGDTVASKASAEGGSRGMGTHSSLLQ
Procedure: as §1, §2

ADRA2B = biological target: T3, ADRA2B (Homo sapiens, UniProt P18089); experiment: NanoBRET screen HiBiT-ADRA2B in HEK293
T3 construct: purchased Promega (in-house HiBiT-GPCR construct library, NanoBRET)
T3 sequence (P18089 1-450): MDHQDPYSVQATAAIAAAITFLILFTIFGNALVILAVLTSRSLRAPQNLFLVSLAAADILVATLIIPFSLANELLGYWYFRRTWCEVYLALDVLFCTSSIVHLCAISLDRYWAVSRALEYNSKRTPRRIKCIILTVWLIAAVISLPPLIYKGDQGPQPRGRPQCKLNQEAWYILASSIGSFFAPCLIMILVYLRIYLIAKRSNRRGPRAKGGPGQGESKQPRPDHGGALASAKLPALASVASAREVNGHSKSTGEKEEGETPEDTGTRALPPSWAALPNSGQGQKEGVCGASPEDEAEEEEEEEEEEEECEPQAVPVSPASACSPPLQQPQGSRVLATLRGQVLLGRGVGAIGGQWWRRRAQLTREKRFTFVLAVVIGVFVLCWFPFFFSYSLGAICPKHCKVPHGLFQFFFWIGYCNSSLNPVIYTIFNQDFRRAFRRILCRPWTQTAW

T1 sequence (P48146 whole entry): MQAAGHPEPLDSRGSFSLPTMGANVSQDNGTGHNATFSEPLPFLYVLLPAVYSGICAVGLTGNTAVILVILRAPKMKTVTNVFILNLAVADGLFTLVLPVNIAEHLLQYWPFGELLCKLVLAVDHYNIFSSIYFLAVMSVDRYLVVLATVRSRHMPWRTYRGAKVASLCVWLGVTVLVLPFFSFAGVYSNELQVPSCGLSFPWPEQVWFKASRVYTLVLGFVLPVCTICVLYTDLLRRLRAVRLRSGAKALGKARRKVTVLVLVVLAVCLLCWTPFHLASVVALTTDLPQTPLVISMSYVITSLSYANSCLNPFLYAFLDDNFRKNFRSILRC

Compound: O=C(CCc1ccc2n1[B-](F)(F)[N+]1=C(c3ccc[nH]3)C=CC1=C2)NCCOCCOCCNC(=O)OCCOCCN1CCN(C2=Nc3ccccc3Sc3ccccc32)CC1 [Quetiapine-a-2-NB590]
NanoBRET Fold Response (NPBWR2; NPBWR2, tracer 0.1μM): 0.97
NanoBRET Fold Response (NPBWR2; NPBWR2, tracer 1μM): 1.09
NanoBRET Fold Response (F2RL3; F2RL3, tracer 0.1μM): 1.09
NanoBRET Fold Response (F2RL3; F2RL3, tracer 1μM): 0.84

Compound: COc1ccccc1N1CCN(CCCCN2C(=O)c3ccc(CNC(=O)CCOCCOCCOCCOCCNC(=O)CCc4ccc5n4[B-](F)(F)[N+]4=C(c6ccc[nH]6)C=CC4=C5)cc3C2=O)CC1 [NAN-190-2-NB590]
NanoBRET Fold Response (ADRA2B; ADRA2B, tracer 0.1μM): 4.00
NanoBRET Fold Response (ADRA2B; ADRA2B, tracer 1μM): 5.99
NanoBRET Fold Response (NPBWR2; NPBWR2, tracer 0.1μM): 1.00
NanoBRET Fold Response (F2RL3; F2RL3, tracer 0.1μM): 0.99
NanoBRET Fold Response (F2RL3; F2RL3, tracer 1μM): 1.01

Compound: CN1CCN(C2=Nc3cc(Cl)ccc3N(CC(=O)NCCOCCOCCOCCOCCNC(=O)CCc3ccc4n3[B-](F)(F)[N+]3=C(c5ccc[nH]5)C=CC3=C4)c3ccccc32)CC1 [Clozapine-c-2-NB590]
NanoBRET Fold Response (NPBWR2; NPBWR2, 0.1μM tracer): 0.97
NanoBRET Fold Response (NPBWR2; NPBWR2, 1μM tracer): 0.98
NanoBRET Fold Response (F2RL3; F2RL3, 0.1μM tracer): 1.02
NanoBRET Fold Response (F2RL3; F2RL3, 1μM tracer): 0.99

NanoBRET Fold Response (ADRA2B; ADRA2B, other tracers/Aminopotentidine (unmodified), 0.1μM): 1.49
NanoBRET Fold Response (ADRA2B; ADRA2B, other tracers/Aminopotentidine (unmodified), 1μM): 1.60
Compound: N#CN/C(=N\CCNC(=O)c1ccc(N)cc1)NCCCOc1cccc(CN2CCCCC2)c1 [Aminopotentidine (unmodified)]

NanoBRET Fold Response (ADRA2B; 0.1μM tracer): 1.35
NanoBRET Fold Response (ADRA2B; 1μM tracer): 1.12
NanoBRET Fold Response (NPBWR2; 0.1μM tracer): 1.08
NanoBRET Fold Response (NPBWR2; 1μM tracer): 0.90
NanoBRET Fold Response (F2RL3; 0.1μM tracer): 1.05
NanoBRET Fold Response (F2RL3; 1μM tracer): 1.04
Compound: COc1ccc2[nH]c(-c3ccc(CNC(=O)CCOCCOCCOCCOCCNC(=O)CCc4ccc5n4[B-](F)(F)[N+]4=C(c6ccc[nH]6)C=CC4=C5)cc3)c(CCNC(C)=O)c2n1 [AzomelatoninICO9-2-NB590]

Compound: O=C(CCc1ccc2n1[B-](F)(F)[N+]1=C(c3ccc[nH]3)C=CC1=C2)NCc1ccc(C(=O)NCCOCCOCCNCC(O)COc2cccc3ccccc23)cc1 (stereo not drawn) [Propranolol-3-NB590]
NanoBRET Fold Response (NPBWR2; NPBWR2, 0.1μM): 1.05
NanoBRET Fold Response (NPBWR2; NPBWR2, 1μM): 1.05
NanoBRET Fold Response (F2RL3; F2RL3, 0.1μM): 1.07
NanoBRET Fold Response (F2RL3; F2RL3, 1μM): 1.00

Compound: O=C(CCc1ccc2n1[B-](F)(F)[N+]1=C(c3ccc[nH]3)C=CC1=C2)NCc1ccc(C(=O)NCCOCCC(=O)N[C@@H]2CC[C@@]3(O)[C@H]4Cc5ccc(O)c6c5[C@@]3(CCN4CC3CC3)[C@H]2O6)cc1 [Naltrexone-3-NB590]
NanoBRET Fold Response (NPBWR2; NPBWR2, tracer 0.1μM): 1.05
NanoBRET Fold Response (NPBWR2; NPBWR2, tracer 1μM): 1.04
NanoBRET Fold Response (F2RL3; F2RL3, tracer 0.1μM): 0.92
NanoBRET Fold Response (F2RL3; F2RL3, tracer 1μM): 1.03

Compound: CN1CCN(C2=Nc3cc(Cl)ccc3Nc3ccc(CNC(=O)CCOCCOCCOCCOCCNC(=O)CCc4ccc5n4[B-](F)(F)[N+]4=C(c6ccc[nH]6)C=CC4=C5)cc32)CC1 [Clozapine-b-2-NB590]
NanoBRET Fold Response (NPBWR2; NPBWR2, 0.1μM tracer): 0.99
NanoBRET Fold Response (NPBWR2; NPBWR2, 1μM tracer): 1.08
NanoBRET Fold Response (F2RL3; F2RL3, 0.1μM tracer): 0.99
NanoBRET Fold Response (F2RL3; F2RL3, 1μM tracer): 1.05
